Measurements from ChEMBL document CHEMBL1201862, “PubChem BioAssay data set” (2004).
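Interpolation was linear, between the two tested concentrations surrounding the appropriate level; five concentrations were tested over 48 hours in 96-well plates. Abbreviation: GI50, concentration required for 50% inhibition of growth.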 Calls of active or inactive are those of the source. Rule as the data show it: active = GI50 up to about 1.1 µM and inactive = higher.

How the values were obtained:
Assay in all cases: growth of human tumour cells (NCI), 48 h
786-0 = tested on: 786-0
A498 = tested on: A498
A549 = tested on: A549
ACHN = tested on: ACHN
BT-549 = tested on: BT-549
CAKI-1 = tested on: CAKI-1
CCRF-CEM = tested on: CCRF-CEM
COLO 205 = tested on: COLO 205
DU-145 = tested on: DU-145
EKVX = tested on: EKVX
HCC 2998 = tested on: HCC 2998
HCT-116 = tested on: HCT-116
HCT-15 = tested on: HCT-15
HL-60 = tested on: HL-60
HOP-62 = tested on: HOP-62
HOP-92 = tested on: HOP-92
HT-29 = tested on: HT-29
Hs-578T = tested on: Hs-578T
IGROV-1 = tested on: IGROV-1
KM12 = tested on: KM12
LOX IMVI = tested on: LOX IMVI
M14 = tested on: M14
MCF7 = tested on: MCF7
MDA-MB-231 = tested on: MDA-MB-231
MDA-MB-435 = tested on: MDA-MB-435
MDA-N = tested on: MDA-N
MOLT-4 = tested on: MOLT-4
Malme-3M = tested on: Malme-3M
NCI-H226 = tested on: NCI-H226
NCI-H23 = tested on: NCI-H23
NCI-H460 = tested on: NCI-H460
NCI-H522 = tested on: NCI-H522
NCI/ADR-RES = tested on: NCI/ADR-RES
OVCAR-3 = tested on: OVCAR-3
OVCAR-4 = tested on: OVCAR-4
OVCAR-5 = tested on: OVCAR-5
OVCAR-8 = tested on: OVCAR-8
PC-3 = tested on: PC-3
RPMI-8226 = tested on: RPMI-8226
RXF 393 = tested on: RXF 393
SF-268 = tested on: SF-268
SF-295 = tested on: SF-295
SF-539 = tested on: SF-539
SK-MEL-28 = tested on: SK-MEL-28
SK-MEL-2 = tested on: SK-MEL-2
SK-MEL-5 = tested on: SK-MEL-5
SK-OV-3 = tested on: SK-OV-3
SN12C = tested on: SN12C
SNB-75 = tested on: SNB-75
SR = tested on: SR
SW-620 = tested on: SW-620
T47D = tested on: T47D
TK-10 = tested on: TK-10
U-251 = tested on: U-251
UACC-257 = tested on: UACC-257
UACC-62 = tested on: UACC-62
UO-31 = tested on: UO-31

Q: Which results are given for `CCOc1ccccc1/N=N/C1C(=O)N(C(=O)CC(=O)Nc2ccccc2Cl)N=C1C` (configuration not stated)?
A: GI50 (786-0): > 100 µM (inactive); GI50 (A498): 50.1 µM (inactive); GI50 (A549): > 100 µM (inactive); GI50 (ACHN): > 100 µM (inactive); GI50 (BT-549): 78.7 µM (inactive); GI50 (CAKI-1): > 100 µM (inactive); GI50 (CCRF-CEM): 68.7 µM (inactive); GI50 (COLO 205): > 100 µM (inactive); GI50 (DU-145): > 100 µM (inactive); GI50 (EKVX): 3.86 µM (inactive); GI50 (HCC 2998): > 100 µM (inactive); GI50 (HCT-116): 87.3 µM (inactive); GI50 (HCT-15): 26.9 µM; GI50 (HL-60): 32.8 µM (inactive); GI50 (HOP-62): 27.9 µM (inactive); GI50 (HOP-92): 20.3 µM (inactive); GI50 (HT-29): > 100 µM (inactive); GI50 (Hs-578T): 22.4 µM (inactive); GI50 (IGROV-1): 64.6 µM (inactive); GI50 (KM12): > 100 µM (inactive); GI50 (LOX IMVI): 43.7 µM (inactive); GI50 (M14): > 100 µM (inactive); GI50 (MCF7): > 100 µM (inactive); GI50 (MDA-MB-231): 97.9 µM (inactive); GI50 (MDA-MB-435): > 100 µM (inactive); GI50 (MDA-N): > 100 µM (inactive); GI50 (MOLT-4): > 100 µM (inactive); GI50 (Malme-3M): > 100 µM (inactive); GI50 (NCI-H226): > 100 µM (inactive); GI50 (NCI-H23): > 100 µM (inactive); GI50 (NCI-H460): 40.2 µM (inactive); GI50 (NCI-H522): > 100 µM (inactive); GI50 (NCI/ADR-RES): 89.3 µM (inactive); GI50 (OVCAR-3): 55.3 µM (inactive); GI50 (OVCAR-4): 71 µM (inactive); GI50 (OVCAR-5): > 100 µM (inactive); GI50 (OVCAR-8): 88.3 µM (inactive); GI50 (PC-3): 94.4 µM (inactive); GI50 (RPMI-8226): 27.2 µM (inactive); GI50 (RXF 393): > 100 µM (inactive); GI50 (SF-268): 33.7 µM (inactive); GI50 (SF-295): 37.6 µM (inactive); GI50 (SF-539): > 100 µM (inactive); GI50 (SK-MEL-28): > 100 µM (inactive); GI50 (SK-MEL-2): > 100 µM (inactive); GI50 (SK-MEL-5): > 100 µM (inactive); GI50 (SK-OV-3): 26.9 µM (inactive); GI50 (SN12C): > 100 µM (inactive); GI50 (SNB-75): 42.2 µM (inactive); GI50 (SR): 78.7 µM (inactive); GI50 (SW-620): > 100 µM (inactive); GI50 (T47D): > 100 µM (inactive); GI50 (TK-10): 81.8 µM (inactive); GI50 (U-251): 42.7 µM (inactive); GI50 (UACC-257): > 10 µM (inactive); GI50 (UACC-62): 56 µM (inactive); GI50 (UO-31): 47.4 µM (inactive)
